Measurements taken from US20260376293A1, “METHODS FOR STUDYING GPR158 PHARMACOLOGY AND IDENTIFICATION OF ITS LIGANDS” (UNIVERSITY OF FLORIDA RESEARCH FOUNDATION, INCORPORATED, priority 2022, published 2026).

Target: T1, GPR158 (Homo sapiens, UniProt Q5T848)
T1 sequence (Q5T848 24-1215): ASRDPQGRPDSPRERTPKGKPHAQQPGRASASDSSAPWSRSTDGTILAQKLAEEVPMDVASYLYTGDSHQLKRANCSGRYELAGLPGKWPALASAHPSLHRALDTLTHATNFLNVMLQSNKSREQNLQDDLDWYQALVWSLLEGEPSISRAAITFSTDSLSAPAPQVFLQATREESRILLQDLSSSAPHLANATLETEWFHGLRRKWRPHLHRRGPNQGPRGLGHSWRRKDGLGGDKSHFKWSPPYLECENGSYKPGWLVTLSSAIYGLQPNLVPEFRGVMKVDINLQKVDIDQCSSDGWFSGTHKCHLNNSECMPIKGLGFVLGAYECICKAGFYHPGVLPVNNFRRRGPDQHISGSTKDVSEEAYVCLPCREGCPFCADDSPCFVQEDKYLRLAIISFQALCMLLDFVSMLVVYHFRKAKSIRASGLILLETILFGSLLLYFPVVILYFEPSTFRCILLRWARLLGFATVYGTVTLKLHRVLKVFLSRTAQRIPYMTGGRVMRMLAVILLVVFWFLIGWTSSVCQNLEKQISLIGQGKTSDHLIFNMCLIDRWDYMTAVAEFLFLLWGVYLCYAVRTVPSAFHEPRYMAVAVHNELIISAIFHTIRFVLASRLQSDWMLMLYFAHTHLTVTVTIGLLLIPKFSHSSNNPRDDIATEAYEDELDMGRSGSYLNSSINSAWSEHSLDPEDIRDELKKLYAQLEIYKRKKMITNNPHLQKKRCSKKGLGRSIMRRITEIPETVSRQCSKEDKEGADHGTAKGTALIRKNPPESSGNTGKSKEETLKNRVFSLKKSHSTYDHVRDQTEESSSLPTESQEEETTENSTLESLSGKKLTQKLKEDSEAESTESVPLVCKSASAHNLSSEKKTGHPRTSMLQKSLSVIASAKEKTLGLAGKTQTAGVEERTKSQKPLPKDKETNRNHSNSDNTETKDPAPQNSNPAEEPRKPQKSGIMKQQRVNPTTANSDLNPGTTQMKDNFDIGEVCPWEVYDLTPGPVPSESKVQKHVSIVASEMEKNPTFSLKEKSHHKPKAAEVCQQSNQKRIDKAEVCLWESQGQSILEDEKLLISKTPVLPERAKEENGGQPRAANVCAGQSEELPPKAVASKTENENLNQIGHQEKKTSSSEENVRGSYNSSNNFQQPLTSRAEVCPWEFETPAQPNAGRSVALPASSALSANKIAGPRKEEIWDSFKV
Assay: BRET cAMP assay in HEK293 cells expressing GPR158
Assay type: cell-based
Design: expressed in transfected cells; host or cells: HEK293FT
Protocol: FIGS. 2A-2C. Taurine signals through GPR158 to regulate cAMP. A) Time course of taurine (100 μM) effect on cAMP concentration in HEK293 cells. Cells were transfected with indicated constructs and cAMP was measured by the BRET assay. B) Quantification of taurine effect on maximal amplitude of the cAMP response. Data shown represent mean±s.e.m. determined from 3-9 independent experiments performed in triplicate. ****p<0.001 (one-way ANOVA). Columns with no fill (Ctrl), columns with angled-line fill (Taurine) C) Comparison of glycine and taurine effects on GPR158-mediated changes in cAMP response. Glycine or taurine was applied to HEK293 cells expressing either GPR158 alone or with RGS7/Gβ5 and the CAMP change was subtracted from the background response in control cells not expressing GPR158. Data shown represent mean±s.e.m. determined from 3 independent experiments performed in triplicate. *p<0.05, ***p<0.01, ns=p>0.05 (one-way ANOVA) Columns with no fill (Ctrl), columns with short-line fill (Glycine), columns with angled-line fill (Taurine).
HEK293FT cells were seeded in a white flat-bottom 96 well plate (Greiner Bio-One) at 50,000 cells per well and transiently transfected using Metafectene Pro with the manufacturer instruction. 24 h after transfection in DMEM complete medium supplemented of 0.1% of Matrigel (Corning), cells were washed with BRET buffer (Dulbecco's Phosphate-Buffered Saline (PBS) containing 0.5 mM MgCl2 and 0.1% glucose). The RLuc (Renilla luciferase) substrate, coelenterazine H (Research Products International Corp, IL), were diluted at 5 μM in BRET buffer and added to cells. BRET measurements were made in living cells using a microplate reader (PHERAstar FSX; BMG Labtech) equipped with two emission photomultiplier tubes. All measurements were performed at 37 °C.
HEK293FT cells or U87 MG cells (ATCC HTB-14) when indicated were co-transfected with the CAMP sensor Camyel and with untagged receptors (respectively: empty vector, GPR158). BRET ratio was determined by calculating the ratio of the light emitted by RLuc (475 nm with a 30 nm band path width) over the light emitted by the Venus (535 nm with a 30 nm band path width) in order to measure an increase of the signal when cAMP increase. ΔBRET was calculated by subtracting the ctrl cell BRET result from GPR158 expressing cells BRET result in order to get specifically the signal from GPR158 removing all the non-specific signal. Finally, netBRET was calculated by subtraction of the baseline value (basal BRET ratio) recorded prior to glycine stimulation from the experimental BRET signal values and the resulting difference (netBRET ratio).

NCCS(=O)(=O)O [taurine, 2-aminoethanesulfonic acid]
type of agonism on GPR158: partial agonist
cAMP change (HEK293 cells expressing GPR158, taurine 100 μM): significant decrease in cAMP levels
cAMP change in parental cells (HEK293 cells without GPR158, taurine 100 μM): did not produce a response
cAMP change with co-expressed RGS7/Gβ5 (HEK293 cells, GPR158 + RGS7/Gβ5, taurine 100 μM): potentiated by co-expressing RGS7/Gβ5
GPR158-mediated suppression of cAMP compared with glycine (HEK293 cells, direct comparison): weaker than the effect of glycine
